Laboratory results reported in article PMC5733478, “A Non-imaging High Throughput Approach to Chemical Library Screening at the Unmodified Adenosine-A3 Receptor in Living Cells” (Frontiers in Pharmacology, 2017).
Counter-ions that a name gives are not always drawn.

biological target: T1, human A3AR (Homo sapiens, UniProt P0DMS8); assay: LOPAC library primary screen: single concentration (10 μM) inhibition of 25 nM CA200645 binding, PHERAstar FS; conditions: not given
T1 construct: expressed in transfected cells
T1 sequence (P0DMS8 1-318): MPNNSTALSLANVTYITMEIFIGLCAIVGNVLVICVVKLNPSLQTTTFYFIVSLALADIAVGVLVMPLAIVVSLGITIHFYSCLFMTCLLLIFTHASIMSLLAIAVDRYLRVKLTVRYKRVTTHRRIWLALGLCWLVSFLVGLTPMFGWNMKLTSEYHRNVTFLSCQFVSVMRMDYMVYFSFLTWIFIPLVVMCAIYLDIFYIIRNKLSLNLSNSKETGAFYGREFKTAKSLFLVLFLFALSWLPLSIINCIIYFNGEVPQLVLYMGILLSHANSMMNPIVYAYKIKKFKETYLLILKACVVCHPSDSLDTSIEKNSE

Compared with `Clc1ccc(C(c2ccc(Cl)cc2)n2cc[n+](CC(OCc3ccc(Cl)cc3Cl)c3ccc(Cl)cc3Cl)c2)cc1` (centres unmarked) [Calmidazolium chloride], `O=C(O)COCCN1CCN(C(c2ccccc2)c2ccc(Cl)cc2)CC1` (centres unmarked) [Cetirizine dihydrochloride] is higher in “% 25 nM CA200645 binding” value: 54.4 ± 19.1% for the first, 98.6 ± 19.3% for the second.

`O=c1[nH]c(=S)[nH]c(-c2ccccc2)c1Cc1c(O)ccc2ccccc12` [Cambinol] and `COc1ccccc1OCCNCC(O)COc1cccc2[nH]c3ccccc3c12` (centres unmarked) [Carvedilol] are within error of each other in “% 25 nM CA200645 binding” value: 94.8 ± 8.3% for the first, 100.8 ± 14.2% for the second.

`CC1(C(=O)O)C2CCC(O2)C1(C)C(=O)O` (centres unmarked) [Cantharidic Acid] and `C[C@@]12C(=O)OC(=O)[C@]1(C)[C@H]1CC[C@@H]2O1` [Cantharidin] are within error of each other in “% 25 nM CA200645 binding” value: 97.5 ± 13.0% for the first, 89.3 ± 25.6% for the second.

`C[C@H](CS)C(=O)N1CCC[C@H]1C(=O)O` [Captopril] and `CC1=C(C(=O)O)N2C(=O)[C@@H](NC(=O)[C@H](N)C3=CCC=CC3)[C@H]2SC1` [Cephradine] are within error of each other in “% 25 nM CA200645 binding” value: 97.2 ± 6.3% for the first, 95.6 ± 1.1% for the second.

`C[N+](C)(C)CCOC(N)=O` [Carbachol] and `C[N+](C)(C)CCO.[Br-]` [Choline bromide] are within error of each other in “% 25 nM CA200645 binding” value: 103.1 ± 3.5% for the first, 100.0 ± 6.6% for the second.

`NC(=O)N1c2ccccc2C=Cc2ccccc21` [Carbamazepine] and `CN(C)CCC=C1c2ccccc2C=Cc2ccccc21` [Cyclobenzaprine hydrochloride] are within error of each other in “% 25 nM CA200645 binding” value: 89.8 ± 14.0% for the first, 85.3 ± 24.5% for the second.

`N.N.O=C([O-])C1(C(=O)[O-])CCC1.[Pt+2]` [Carboplatin] and `CC(=O)OCC1=C(C(=O)[O-])N2C(=O)[C@@H](NC(=O)CCC[C@@H](N)C(=O)[O-])[C@H]2SC1.[Zn+2]` [Cephalosporin C zinc salt] are within error of each other in “% 25 nM CA200645 binding” value: 97.7 ± 5.9% for the first, 86.9 ± 28.2% for the second.

Going from `O=NN(CCCl)C(=O)NCCCl` [Carmustine] to `O=P1(N(CCCl)CCCl)NCCCO1` (centres unmarked) [Cyclophosphamide monohydrate], the “% 25 nM CA200645 binding” value falls from 102.2 ± 1.0% to 79.2 ± 18.9%.

`N[C@@H](C(=O)N[C@@H]1C(=O)N2C(C(=O)O)=C(Cl)CS[C@H]12)c1ccccc1` [Cefaclor] and `CC1=C(C(=O)O)N2C(=O)[C@@H](NC(=O)[C@H](N)c3ccccc3)[C@H]2SC1.O` [Cephalexin hydrate] are within error of each other in “% 25 nM CA200645 binding” value: 79.3 ± 20.7% for the first, 101.0 ± 8.0% for the second.

`Cc1nnc(SCC2=C(C(=O)O)N3C(=O)[C@@H](NC(=O)Cn4cnnn4)[C@H]3SC2)s1` [Cefazolin sodium] and `CC(=O)OCC1=C(C(=O)O)N2C(=O)[C@@H](NC(=O)Cc3cccs3)[C@H]2SC1` [Cephalothin sodium] are within error of each other in “% 25 nM CA200645 binding” value: 96.3 ± 4.6% for the first, 104.6 ± 12.0% for the second.

`CO[C@@]1(NC(=O)CSCC#N)C(=O)N2C(C(=O)O)=C(CSc3nnnn3C)CS[C@@H]21` [Cefmetazole sodium] and `CO/N=C(\C(=O)N[C@@H]1C(=O)N2C(C(=O)O)=C(CSc3nc(=O)c(=O)[nH]n3C)CS[C@H]12)c1csc(N)n1` [Ceftriaxone sodium] are within error of each other in “% 25 nM CA200645 binding” value: 84.6 ± 22.3% for the first, 100.5 ± 11.9% for the second.

`CO/N=C(\C(=O)N[C@@H]1C(=O)N2C(C(=O)O)=C(COC(C)=O)CS[C@H]12)c1csc(N)n1` [Cefotaxime sodium] and `NC(=O)c1cc[n+](CC2=C(C(=O)[O-])N3C(=O)[C@@H](NC(=O)C(c4ccccc4)S(=O)(=O)[O-])[C@H]3SC2)cc1.O.[Na+]` (some centres unmarked) [Cefsulodin sodium salt hydrate] are within error of each other in “% 25 nM CA200645 binding” value: 94.2 ± 6.2% for the first, 100.8 ± 6.6% for the second.

`Cc1ccc(-c2cc(C(F)(F)F)nn2-c2ccc(S(N)(=O)=O)cc2)cc1` [Celecoxib] and `Clc1ccccc1C(c1ccccc1)(c1ccccc1)n1ccnc1` [Clotrimazole] are within error of each other in “% 25 nM CA200645 binding” value: 72.6 ± 20.4% for the first, 74.0 ± 15.0% for the second.

`CN(C)CCOC(=O)COc1ccc(Cl)cc1` [Centrophenoxine hydrochloride] and `CCCNC(=O)NS(=O)(=O)c1ccc(Cl)cc1` [Chlorpropamide] are within error of each other in “% 25 nM CA200645 binding” value: 90.4 ± 28.8% for the first, 97.6 ± 7.8% for the second.

Going from `COc1ccc2c(c[n+](C)c3c4cc5c(cc4ccc23)OCO5)c1OC` [Chelerythrine chloride] to `CCn1nc(C(=O)O)c(=O)c2cc3c(cc21)OCO3` [Cinoxacin], the “% 25 nM CA200645 binding” value rises from 73.9 ± 3.7% to 96.9 ± 2.7%.

`O=C(O)c1cc(O)cc(C(=O)O)n1` [Chelidamic acid] and `O=C(O)CCC(=O)O.c1ccc(C2(c3ccccc3)CC2C2=NCCN2)cc1` (centres unmarked) [Cibenzoline succinate] are within error of each other in “% 25 nM CA200645 binding” value: 110.2 ± 8.8% for the first, 95.2 ± 7.2% for the second.

`Cc1ncsc1CCCl.Cl` [Chlormethiazole hydrochloride] and `CN/C(=N/CCSCc1nc[nH]c1C)NC#N` [Cimetidine] are within error of each other in “% 25 nM CA200645 binding” value: 84.7 ± 21.7% for the first, 94.0 ± 4.0% for the second.

`CN1C(=O)CCS(=O)(=O)C1c1ccc(Cl)cc1` (centres unmarked) [Chlormezanone] and `CC(C)(Oc1ccc(C2CC2(Cl)Cl)cc1)C(=O)O` (centres unmarked) [Ciprofibrate] are within error of each other in “% 25 nM CA200645 binding” value: 101.4 ± 10.9% for the first, 98.7 ± 5.2% for the second.

First: NS(=O)(=O)c1cc2c(cc1Cl)N=CNS2(=O)=O [Chlorothiazide]
Second: NS(=O)(=O)c1cc2c(cc1Cl)NC(C1CC3C=CC1C3)NS2(=O)=O (centres unmarked) [Cyclothiazide]
The “% 25 nM CA200645 binding” value of the first is higher: 107.7 ± 8.4% for the first, 93.2 ± 4.7% for the second.

`CN(C)CCCN1c2ccccc2Sc2ccc(Cl)cc21` [Chlorpromazine hydrochloride] and `CN(C)CCCN1c2ccccc2CCc2ccc(Cl)cc21` [Clomipramine hydrochloride] are within error of each other in “% 25 nM CA200645 binding” value: 92.2 ± 10.3% for the first, 99.4 ± 3.8% for the second.

`CN(C)CC/C=C1/c2ccccc2Sc2ccc(Cl)cc21` [Chlorprothixene hydrochloride] and `CN(C)CCCC1(c2ccc(F)cc2)OCc2cc(C#N)ccc21` (centres unmarked) [Citalopram hydrobromide] are within error of each other in “% 25 nM CA200645 binding” value: 96.6 ± 7.7% for the first, 97.2 ± 4.4% for the second.

First: COCCOC(=O)C1=C(C)NC(C)=C(C(=O)OC/C=C/c2ccccc2)C1c1cccc([N+](=O)[O-])c1 (centres unmarked) [Cilnidipine]
Second: CN1CCC(=C2c3ccccc3C=Cc3ccccc32)CC1 [Cyproheptadine hydrochloride]
The “% 25 nM CA200645 binding” value of the first is lower: 67.0 ± 19.0% for the first, 96.0 ± 5.5% for the second.

`O=C1CCc2cc(OCCCCc3nnnn3C3CCCCC3)ccc2N1` [Cilostazol] and `Cl.O=C(c1ccc(OCCCc2cnc[nH]2)cc1)C1CC1` [Ciproxifan hydrochloride] are within error of each other in “% 25 nM CA200645 binding” value: 105.8 ± 41.7% for the first, 102.4 ± 6.2% for the second.

First: N.N.[Cl][Pt][Cl] [Cisplatin]
Second: O=P(O)(O)C(Cl)(Cl)P(=O)(O)O [Clodronic acid]
The “% 25 nM CA200645 binding” value of the first is lower: 69.0 ± 8.2% for the first, 98.4 ± 3.5% for the second.

`Cl.Clc1ccc(Cn2c(CN3CCCC3)nc3ccccc32)cc1` [Clemizole hydrochloride] and `Clc1cccc(Cl)c1N=C1NCCN1` [Clonidine hydrochloride] are within error of each other in “% 25 nM CA200645 binding” value: 99.7 ± 8.2% for the first, 101.9 ± 9.8% for the second.

`C[C@]12C[C@H](O)[C@H]3[C@@H](CCC4=CC(=O)CC[C@@]43C)[C@@H]1CC[C@@H]2C(=O)CO` [Corticosterone] and `C[C@]12CCC(=O)C=C1CC[C@@H]1[C@@H]2C(=O)C[C@@]2(C)[C@H]1CC[C@]2(O)C(=O)CO` [Cortisone] are within error of each other in “% 25 nM CA200645 binding” value: 99.8 ± 5.3% for the first, 94.0 ± 5.3% for the second.

`CC(=O)OCC(=O)[C@@]1(O)CC[C@H]2[C@@H]3CCC4=CC(=O)CC[C@]4(C)[C@H]3C(=O)C[C@@]21C` [Cortisone 21-acetate] and `CC(=O)O[C@]1(C(C)=O)CC[C@H]2[C@@H]3C=C(Cl)C4=CC(=O)[C@@H]5C[C@@H]5[C@]4(C)[C@H]3CC[C@@]21C` [Cyproterone acetate] are within error of each other in “% 25 nM CA200645 binding” value: 92.1 ± 5.7% for the first, 95.6 ± 2.1% for the second.

With `Cc1cc(NC2CCCCC2)nc(-n2nc(C)cc2C)n1` [CyPPA] the “% 25 nM CA200645 binding” value was 68.8 ± 15.9%.

same assay, conditions: % of control wells (1% DMSO and 25 nM CA200645); compounds at 10 µM; […]; mean ± SD, three experiments in duplicate

In the case of `CCOC(=O)C(C)(C)Oc1ccc(Cl)cc1` [Clofibrate], the “% 25 nM CA200645 binding” value is reported as 81.3 ± 24.9%.

same assay, conditions: % of control wells (1% DMSO and 25 nM CA200645); compounds at 10 µM; whole live cells expressing A3AR; mean ± SD, three experiments in duplicate

In the case of `NCCSSCCN` [Cystamine dihydrochloride], the “% 25 nM CA200645 binding” value is reported as 96.6 ± 12.8%.

same assay, conditions: % of control wells (1% DMSO and 25 nM CA200645); compounds at 10 µM; whole live cells expressing the A3AR; mean ± SD, three experiments in duplicate

In the case of `CN(C(=O)CCCOc1ccc2[nH]c(=O)ccc2c1)C1CCCCC1` [Cilostamide], the “% 25 nM CA200645 binding” value is reported as 75.9 ± 3.4%.

same assay, conditions: compounds tested at 10 µM; % of control wells (1% DMSO and 25 nM CA200645); whole live cells expressing the A3AR; mean ± SD, three experiments in duplicate

`Oc1cc2c(cc1O)CN(C(=S)NCCc1ccc(Cl)cc1)CCC2` [Capsazepine] and `C#CCN(C)CCCOc1ccc(Cl)cc1Cl` [Clorgyline hydrochloride] are within error of each other in “% 25 nM CA200645 binding” value: 90.6 ± 11.8% for the first, 96.0 ± 4.2% for the second.

`c1ccc(C2CC2)c(OCC2=NCCN2)c1` [Cirazoline hydrochloride] and `C[C@]12CCC(=O)C=C1CC[C@@H]1[C@@H]2CC[C@@]2(C)[C@H]1CC[C@]2(O)C(=O)CO` [Cortexolone] are within error of each other in “% 25 nM CA200645 binding” value: 105.5 ± 7.7% for the first, 110.6 ± 19.2% for the second.
